Assay results reported in patent publication US20250170121A1, “ISOQUINOLINONE COMPOUND, AND PREPARATION METHOD AND USE THEREFOR” (FUDAN UNIVERSITY, priority 2022, published 2025).

Tests used:
Human FABP4 = target: T1, Human FABP4 (Homo sapiens, UniProt P15090); assay: FABP4 inhibition rate, ANS substrate competition (fluorescence) method; type: binding; details: compound 25 μM; 10 μM 1,8-ANS, 10 μM FABP4
T1 construct: His tag; made in house; host or cells: E. coli BL21 (DE3)
Text: (§1) Considering that inhibition of FABP3 would cause myocardial function damage and bring potential safety issues, we tested the inhibitory activity of some compounds on FABP3. The activity test is illustrated by the example of the FABP4 activity test system as below.
(§2) Experimental principle and method: Once the free non-covalent fluorescent probe ANS binds to FABP4, the ANS fluorescence intensity will increase and its spectrum will be blue shifted. In this experiment, the inhibitory effect of the compound on FABP4 was evaluated by measuring the change in the ANS fluorescence signal value. For the FABP4 inhibitory activity test, the ANS substrate competition method was used, and we used the method of Kane and Bernlohr (E. Marr, M. Tardie, M. Carty, T. Brown Phillips, I. K. Wang, W. Soeller, X. Qiu, G. Karam, Expression, purification, crystallization and structure of human adipocyte lipid-binding protein (aP2). Acta Crystallogr., Sect. F: Struct. Biol. Cryst. Commun. 62 (2006) 1058-1060.). Human FABP4 with a His tag was expressed in the BL21 (DE3) strain and then purified using a Ni column with a His tag to generate the protein. In the detection system, the concentration of 1,8-ANS substrate was 10 μM, the final concentration of FABP4 was 10 μM, and then the compound prepared by the present invention was added at the required concentration for incubation for 3 minutes, and finally the fluorescence signal was detected at an excitation wavelength (EX) of 370 nm/emission wavelength (EM) of 470 nm. The inhibition rate (%) of the test sample on FABP4 was calculated according to the fluorescence absorption value of the system. The inhibition rate (%) was calculated according to the following equation: […]
(§3) FX represents the fluorescence value (fluorescence, F) of the system measured in the presence of compound x;
(§4) Fbackground represents the fluorescence value of the fluorescent substrate ANS;
(§5) F0% represents the fluorescence value of the system when the inhibition rate is 0%, that is, when no compound was added.

FABP5 = FABP5 (Homo sapiens, UniProt Q01469); assay: FABP5 inhibition rate, ANS substrate competition method (illustrated by the FABP4 system); type: binding; details: compound 25 μM
FABP3 = FABP3 (Homo sapiens, UniProt P05413); assay: FABP3 inhibition rate, ANS substrate competition method (illustrated by the FABP4 system); type: binding; details: compound 25 μM
Text: as §1, §2, §3, §4, §5

[1] = test system: MCP-1 secretion in THP-1 cells; assay: MCP-1 secretion in LPS-stimulated THP-1 monocyte-derived macrophages (ELISA); type: cell-based; details: 25 μM, 10 μM and 5 μM; 18 h incubation, 100 ng/ml LPS 6 h; FIG. 2
Text: (§6) In FIG. 2A to FIG. 2C, the vertical axis represents the amount (ng) of MCP-1 contained in each mg of cell protein: in FIG. 2D, the vertical axis represents the relative concentration of MCP-1 (ng/mg cellular protein % LPS). Wherein, Control represents blank control treatment, LPS represents lipopolysaccharide treatment, BMS309403 represents inhibitor positive control treatment, RO6806051 (RO) represents lead compound treatment, and Y2, Y3, Y15, Y16 and Y18 represent treatments with compounds Y2, Y3, Y15, Y16 and Y18 prepared in the present invention, respectively.
(§7) Effects of the compounds on monocyte chemoattractant factor-1 (MCP-1) and interleukin-6 (IL-6) in THP-1 monocyte-derived macrophage.
(§8) First, monocytic cell line THP-1 in logarithmic growth phase was plated on a 96-well plate at a cell density of 5*10^5/ml; then 100 nM phorbol myristate ester (PMA) was added to induce the cells for 24 hours to differentiate into macrophages; then the cells were washed once or twice with phosphate buffered saline (PBS), and different concentrations of compounds (5, 10, 25 μM) were added for incubation for 18 hours; finally, after 6 hours of stimulation with 100 ng/ml lipopolysaccharide (LPS), the supernatant was collected and diluted to a certain multiple and the contents of MCP-1 and IL-6 were detected using enzyme-linked immunosorbent assay (ELISA), and cell protein was collected and the protein concentration was measured by BCA method for calibration.

[2] = test system: IL-6 secretion in THP-1 cells; assay: IL-6 secretion in LPS-stimulated THP-1 monocyte-derived macrophages (ELISA); type: cell-based; details: FIG. 3
Text: as §6, with “3,” for “2A to FIG. 2C,”, “protein.” for “protein: in FIG. 2D, the vertical axis represents the relative concentration of MCP-1 (ng/mg cellular protein % LPS).”, “Control (Con)” for “Control”
as §7, §8

Sequence of FABP3 (P05413 whole entry): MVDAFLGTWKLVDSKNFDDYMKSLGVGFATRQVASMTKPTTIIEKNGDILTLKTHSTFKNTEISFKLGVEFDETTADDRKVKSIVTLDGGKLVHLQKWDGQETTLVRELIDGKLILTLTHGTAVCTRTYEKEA
Sequence of FABP5 (Q01469 whole entry): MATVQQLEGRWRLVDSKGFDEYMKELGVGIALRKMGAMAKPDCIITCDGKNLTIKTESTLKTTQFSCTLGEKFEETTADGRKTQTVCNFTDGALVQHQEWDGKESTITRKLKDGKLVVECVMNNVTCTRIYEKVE
T1 sequence (P15090 whole entry): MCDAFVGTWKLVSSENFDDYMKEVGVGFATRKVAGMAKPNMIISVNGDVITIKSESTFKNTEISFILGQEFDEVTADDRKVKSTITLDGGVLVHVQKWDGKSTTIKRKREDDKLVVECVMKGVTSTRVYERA

`O=C(O)c1c(-c2ccc(F)c(Cl)c2)c2cc(Cl)ccc2c(=O)n1C1CCCC1` [Compound Y18, 6-Chloro-4-(3-chloro-4-fluorophenyl)-2-cyclopentyl-1-oxo-1,2-dihydroisoquinoline-3-carboxylic Acid] showed an inhibition at 25 µM (Human FABP4) of 91%, an inhibition at 25 µM (FABP5) of 46% and an inhibition at 25 µM (FABP3) of 16%. The “secretion of inflammatory factor MCP-1 in THP-1 mononuclear macrophages” value [1] was “could reduce the secretion of inflammatory factor MCP-1”, the “secretion of inflammatory factor IL-6 in THP-1 mononuclear macrophages” value ([2]; 25 μM) was “could reduce the secretion of inflammatory factor IL-6” and the “IL-6 secretion, tendency (no concentration stated)” value [2] was “tendency to reduce IL-6 secretion but with no statistical difference”.

Compound `O=C(O)c1c(-c2ccc3c(c2)CCO3)c2cc(Cl)ccc2c(=O)n1C1CCCC1` [Compound Y20, 6-Chloro-2-cyclopentyl-4-(2,3-dihydrobenzofuran-5-yl)-1-oxo-1,2-dihydroisoquinoline-3-carboxylic Acid] has an inhibition at 25 µM (Human FABP4) of 32% and an inhibition at 25 µM (FABP5) of 25%.

Compound `O=C(O)c1c(-c2cccnc2)c2cc(Cl)ccc2c(=O)n1C1CCCC1` [Compound Y21, 6-Chloro-2-cyclopentyl-1-oxo-4-(pyridin-3-yl)-1,2-dihydroisoquinoline-3-carboxylic Acid] has an inhibition at 25 µM (Human FABP4) of 76%, an inhibition at 25 µM (FABP5) of 31% and an inhibition at 25 µM (FABP3) of 9%.

Compound `O=C(O)c1c(-c2ccccc2)c2ccccc2c(=O)n1C1CCCC1` [Compound Y12, 2-Cyclopentyl-1-oxo-4-phenyl-1,2-dihydroisoquinoline-3-carboxylic Acid] has an inhibition at 25 µM (Human FABP4) of 58% and an inhibition at 25 µM (FABP5) of 25%.

`O=C(O)c1c(-c2ccccc2)c2cc(F)ccc2c(=O)n1C1CCCC1` [Compound Y13, 2-Cyclopentyl-6-fluoro-1-oxo-4-phenyl-1,2-dihydroisoquinoline-3-carboxylic Acid] gave an inhibition at 25 µM (Human FABP4) of 89%, an inhibition at 25 µM (FABP5) of 43% and an inhibition at 25 µM (FABP3) of 11%.

`O=C(O)c1c(-c2ccccc2)c2cc(Cl)ccc2c(=O)n1C1CCCCCC1` [Compound Y7, 6-Chloro-2-cycloheptyl-1-oxo-4-phenyl-1,2-dihydroisoquinoline-3-carboxylic Acid] gave an inhibition at 25 µM (Human FABP4) of 78%, an inhibition at 25 µM (FABP5) of 57% and an inhibition at 25 µM (FABP3) of 18%.

Work on `Cc1ccc2c(=O)n(C3CCCC3)c(C(=O)O)c(-c3ccccc3)c2c1` [Compound Y14, 2-Cyclopentyl-6-methyl-1-oxo-4-phenyl-1,2-dihydroisoquinoline-3-carboxylic Acid] yielded an inhibition at 25 µM (Human FABP4) of 90%, an inhibition at 25 µM (FABP5) of 55% and an inhibition at 25 µM (FABP3) of 26%.

With `Cc1nn(C)cc1-c1c(C(=O)O)n(C2CCCC2)c(=O)c2ccc(Cl)cc12` [Compound Y22, 6-Chloro-2-cyclopentyl-4-(1,3-dimethyl-1H-pyrazol-4-yl)-1-oxo-1,2-dihydroisoquinoline-3-carboxylic Acid] the inhibition at 25 µM (Human FABP4) was 36%, the inhibition at 25 µM (FABP5) was 36% and the inhibition at 25 µM (FABP3) was 1%.

For `O=C(O)c1c(-c2ccc(O)cc2)c2cc(Cl)ccc2c(=O)n1C1CCCC1` [Compound Y16, 6-Chloro-2-cyclopentyl-4-(4-hydroxyphenyl)-1-oxo-1,2-dihydroisoquinoline-3-carboxylic Acid], the inhibition at 25 µM (Human FABP4) was 92%, the inhibition at 25 µM (FABP5) was 52% and the inhibition at 25 µM (FABP3) was 28%. For the same compound, the “secretion of inflammatory factor MCP-1 in THP-1 mononuclear macrophages” value [1] was “could reduce the secretion of inflammatory factor MCP-1”.

Work on `O=C(O)c1c(-c2ccccc2)c2cc(Br)ccc2c(=O)n1C1CCCC1` [Compound Y10, 6-Bromo-2-cyclopentyl-1-oxo-4-phenyl-1,2-dihydroisoquinoline-3-carboxylic Acid] yielded an inhibition at 25 µM (Human FABP4) of 95%, an inhibition at 25 µM (FABP5) of 58% and an inhibition at 25 µM (FABP3) of 57%.

`O=C(O)c1c(-c2ccc(C(F)(F)F)cc2)c2cc(Cl)ccc2c(=O)n1C1CCCC1` [Compound Y19, 6-Chloro-2-cyclopentyl-1-oxo-4-(4-(trifluoromethyl)phenyl)-1,2-dihydroisoquinoline-3-carboxylic Acid] was tested, and the inhibition at 25 µM (Human FABP4) was 14%, the inhibition at 25 µM (FABP5) was 22% and the inhibition at 25 µM (FABP3) was 3%.

With `O=C(O)c1c(-c2ccccc2)c2cc(Cl)ccc2c(=O)n1C1CC1` [Compound Y5, 6-Chloro-2-cyclopropyl-1-oxo-4-phenyl-1,2-dihydroisoquinoline-3-carboxylic Acid] the inhibition at 25 µM (Human FABP4) was 88%, the inhibition at 25 µM (FABP5) was 43% and the inhibition at 25 µM (FABP3) was 82%.

For `O=C(O)c1c(-c2ccccc2)c2cc(Cl)ccc2c(=O)n1-c1ccc(Cl)cc1` [Compound Y8, 6-Chloro-2-(4-chlorophenyl)-1-oxo-4-phenyl-1,2-dihydroisoquinoline-3-carboxylic Acid], the inhibition at 25 µM (Human FABP4) was 35% and the inhibition at 25 µM (FABP5) was 1%.

In the case of `O=C(O)c1c(-c2ccccc2)c2cc(Cl)ccc2c(=O)n1C1CCCCC1` [Compound Y1, 6-Chloro-2-cyclohexyl-1-oxo-4-phenyl-1,2-dihydroisoquinoline-3-carboxylic Acid], the inhibition at 25 µM (Human FABP4) is reported as 70%, the inhibition at 25 µM (FABP5) is reported as 50% and the inhibition at 25 µM (FABP3) is reported as 29%.

Work on `O=C(O)c1c(-c2ccccc2)c2cc(Cl)c(Cl)cc2c(=O)n1C1CCCC1` [Compound Y11, 6,7-Dichloro-2-cyclopentyl-1-oxo-4-phenyl-1,2-dihydroisoquinoline-3-carboxylic Acid] yielded an inhibition at 25 µM (Human FABP4) of 77%, an inhibition at 25 µM (FABP5) of 41% and an inhibition at 25 µM (FABP3) of 48%.

`O=C(O)c1c(-c2ccccc2)c2cc(Cl)ccc2c(=O)n1C1CCC1` [Compound Y6, 6-Chloro-2-cyclobutyl-1-oxo-4-phenyl-1,2-dihydroisoquinoline-3-carboxylic Acid] was tested, and the inhibition at 25 µM (Human FABP4) was 94%, the inhibition at 25 µM (FABP5) was 60% and the inhibition at 25 µM (FABP3) was 81%.

`O=C(O)c1c(-c2ccc(F)cc2)c2cc(Cl)ccc2c(=O)n1C1CCCC1` [Compound Y15, 6-Chloro-2-cyclopentyl-4-(4-fluorophenyl)-1-oxo-1,2-dihydroisoquinoline-3-carboxylic Acid] was tested, and the inhibition at 25 µM (Human FABP4) was 91%, the inhibition at 25 µM (FABP5) was 52% and the inhibition at 25 µM (FABP3) was 27%. For the same compound, the “secretion of inflammatory factor MCP-1 in THP-1 mononuclear macrophages” value [1] was “could reduce the secretion of inflammatory factor MCP-1” and the “IL-6 secretion, tendency (no concentration stated)” value [2] was “tendency to reduce IL-6 secretion but with no statistical difference”.

Work on `O=C(O)c1c(-c2ccccc2)c2cc(Cl)ccc2c(=O)n1C1CCOCC1` [Compound Y4, 6-Chloro-1-oxo-4-phenyl-2-(tetrahydro-2H-pyran-4-yl)-1,2-dihydroisoquinoline-3-carboxylic Acid] yielded an inhibition at 25 µM (Human FABP4) of 71%, an inhibition at 25 µM (FABP5) of 50% and an inhibition at 25 µM (FABP3) of 14%.

With `O=C(O)c1c(-c2ccc(CO)cc2)c2cc(Cl)ccc2c(=O)n1C1CCCC1` [Compound Y17, 6-Chloro-2-cyclopentyl-4-(4-(hydroxymethyl)phenyl)-1-oxo-1,2-dihydroisoquinoline-3-carboxylic Acid] the inhibition at 25 µM (Human FABP4) was 1% and the inhibition at 25 µM (FABP5) was 14%.

`O=C(O)c1c(-c2ccccc2)c2cc(Cl)ccc2c(=O)n1N1CCCCC1` [Compound Y9, 6-Chloro-1-oxo-4-phenyl-2-(piperidin-1-yl)-1,2-dihydroisoquinoline-3-carboxylic Acid] gave an inhibition at 25 µM (Human FABP4) of 95%, an inhibition at 25 µM (FABP5) of 72% and an inhibition at 25 µM (FABP3) of 59%.
